Test results from the supplement of paper PMC10307832.

Assays:
Assay in all cases: relative viability (nuclei count vs DMSO), 5 days (fraction); higher = more cells survive
[1] = test system: A-427
Procedure, shortened: (§1)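 Five library-drug doses in √10 steps were combined with a fixed anchor-drug dose, or a single drug was given alone, by pin tool to lung cancer cell lines in 1536-well plates the day after seeding. Nuclei were stained and counted after 5 days. Relative viability is the nuclei count in treated wells over that in vehicle wells, taken as the median of duplicate plates.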

[2] = test system: BEN
Procedure, shortened: as §1

[3] = test system: HARA
Procedure, shortened: as §1

[4] = test system: LCLC-97TM1
Procedure, shortened: as §1

[5] = test system: LOU-NH91
Procedure, shortened: as §1

[6] = test system: LU99A
Procedure, shortened: as §1

[7] = test system: LXF-289
Procedure, shortened: as §1

[8] = test system: NCI-H1395
Procedure, shortened: as §1

[9] = test system: NCI-H1563
Procedure, shortened: as §1

[10] = test system: NCI-H1666
Procedure, shortened: as §1

[11] = test system: NCI-H1755
Procedure, shortened: as §1

[12] = test system: NCI-H1793
Procedure, shortened: as §1

[13] = test system: NCI-H1915
Procedure, shortened: as §1

[14] = test system: NCI-H1944
Procedure, shortened: as §1

[15] = test system: NCI-H2023
Procedure, shortened: as §1

[16] = test system: NCI-H2126
Procedure, shortened: as §1

[17] = test system: NCI-H2170
Procedure, shortened: as §1

[18] = test system: NCI-H2342
Procedure, shortened: as §1

[19] = test system: NCI-H23
Procedure, shortened: as §1

[20] = test system: NCI-H322M
Procedure, shortened: as §1

[21] = test system: NCI-H441
Procedure, shortened: as §1

[22] = test system: NCI-H460
Procedure, shortened: as §1

[23] = test system: NCI-H650
Procedure, shortened: as §1

[24] = test system: PC-3 [JPC-3]
Procedure, shortened: as §1

[25] = test system: SK-LU-1
Procedure, shortened: as §1

SMILES: CCCCCCCCCCCC1=C(O)C(=O)C=C(O)C1=O [Embelin] + Nc1nc2[nH]cc(CCc3ccc(C(=O)N[C@@H](CCC(=O)O)C(=O)O)cc3)c2c(=O)[nH]1 [Pemetrexed] (partner 0.2 µM)
- relative viability ([1]; first compound 0.08 µM): 0.993
- relative viability ([1]; first compound 0.8 µM): 1.07
- relative viability ([1]; first compound 2.53 µM): 0.963
- relative viability ([1]; first compound 8 µM): 0.502
- relative viability ([2]; first compound 0.08 µM): 0.763
- relative viability ([2]; first compound 0.8 µM): 0.823
- relative viability ([2]; first compound 2.53 µM): 1.03
- relative viability ([2]; first compound 8 µM): 0.731
- relative viability ([3]; first compound 0.08 µM): 0.292
- relative viability ([3]; first compound 0.8 µM): 0.279
- relative viability ([3]; first compound 2.53 µM): 0.256
- relative viability ([3]; first compound 8 µM): 0.208
- relative viability ([4]; first compound 0.08 µM): 0.17
- relative viability ([4]; first compound 0.8 µM): 0.166
- relative viability ([4]; first compound 2.53 µM): 0.163
- relative viability ([4]; first compound 8 µM): 0.182
- relative viability ([5]; first compound 0.08 µM): 0.357
- relative viability ([5]; first compound 0.8 µM): 0.385
- relative viability ([5]; first compound 2.53 µM): 0.381
- relative viability ([5]; first compound 8 µM): 0.466
- relative viability ([6]; first compound 0.08 µM): 0.182
- relative viability ([6]; first compound 0.8 µM): 0.178
- relative viability ([6]; first compound 2.53 µM): 0.15
- relative viability ([6]; first compound 8 µM): 0.192
- relative viability ([7]; first compound 0.08 µM): 0.863
- relative viability ([7]; first compound 0.8 µM): 0.915
- relative viability ([7]; first compound 2.53 µM): 0.866
- relative viability ([7]; first compound 8 µM): 1.08
- relative viability ([8]; first compound 0.08 µM): 0.828
- relative viability ([8]; first compound 0.8 µM): 1.03
- relative viability ([8]; first compound 2.53 µM): 0.856
- relative viability ([8]; first compound 8 µM): 0.585
- relative viability ([9]; first compound 0.08 µM): 0.742
- relative viability ([9]; first compound 0.8 µM): 0.767
- relative viability ([9]; first compound 2.53 µM): 0.693
- relative viability ([9]; first compound 8 µM): 0.713
- relative viability ([10]; first compound 0.08 µM): 0.922
- relative viability ([10]; first compound 0.8 µM): 0.894
- relative viability ([10]; first compound 2.53 µM): 0.849
- relative viability ([10]; first compound 8 µM): 0.817
- relative viability ([11]; first compound 0.08 µM): 0.448
- relative viability ([11]; first compound 0.8 µM): 0.468
- relative viability ([11]; first compound 2.53 µM): 0.433
- relative viability ([11]; first compound 8 µM): 0.46
- relative viability ([12]; first compound 0.08 µM): 0.82
- relative viability ([12]; first compound 0.8 µM): 1.06
- relative viability ([12]; first compound 2.53 µM): 1.18
- relative viability ([12]; first compound 8 µM): 0.37
- relative viability ([13]; first compound 0.08 µM): 0.518
- relative viability ([13]; first compound 0.8 µM): 0.488
- relative viability ([13]; first compound 2.53 µM): 0.558
- relative viability ([13]; first compound 8 µM): 0.55
- relative viability ([14]; first compound 0.08 µM): 0.545
- relative viability ([14]; first compound 0.8 µM): 0.754
- relative viability ([14]; first compound 2.53 µM): 0.578
- relative viability ([14]; first compound 8 µM): 0.643
- relative viability ([15]; first compound 0.08 µM): 0.206
- relative viability ([15]; first compound 0.8 µM): 0.244
- relative viability ([15]; first compound 2.53 µM): 0.226
- relative viability ([15]; first compound 8 µM): 0.249
- relative viability ([16]; first compound 0.08 µM): 0.735
- relative viability ([16]; first compound 0.8 µM): 0.636
- relative viability ([16]; first compound 2.53 µM): 0.654
- relative viability ([16]; first compound 8 µM): 0.69
- relative viability ([17]; first compound 0.08 µM): 0.264
- relative viability ([17]; first compound 0.8 µM): 0.252
- relative viability ([17]; first compound 2.53 µM): 0.276
- relative viability ([17]; first compound 8 µM): 0.274
- relative viability ([18]; first compound 0.08 µM): 0.738
- relative viability ([18]; first compound 0.8 µM): 0.806
- relative viability ([18]; first compound 2.53 µM): 0.859
- relative viability ([18]; first compound 8 µM): 0.814
- relative viability ([19]; first compound 0.08 µM): 0.786
- relative viability ([19]; first compound 0.8 µM): 0.675
- relative viability ([19]; first compound 2.53 µM): 0.589
- relative viability ([19]; first compound 8 µM): 0.665
- relative viability ([20]; first compound 0.08 µM): 0.598
- relative viability ([20]; first compound 0.8 µM): 0.625
- relative viability ([20]; first compound 2.53 µM): 0.646
- relative viability ([20]; first compound 8 µM): 0.667
- relative viability ([21]; first compound 0.08 µM): 0.255
- relative viability ([21]; first compound 0.8 µM): 0.261
- relative viability ([21]; first compound 2.53 µM): 0.301
- relative viability ([21]; first compound 8 µM): 0.274
- relative viability ([22]; first compound 0.08 µM): 0.0662
- relative viability ([22]; first compound 0.8 µM): 0.072
- relative viability ([22]; first compound 2.53 µM): 0.0629
- relative viability ([22]; first compound 8 µM): 0.0617
- relative viability ([23]; first compound 0.08 µM): 0.968
- relative viability ([23]; first compound 0.8 µM): 1.17
- relative viability ([23]; first compound 2.53 µM): 0.979
- relative viability ([23]; first compound 8 µM): 0.954
- relative viability ([24]; first compound 0.08 µM): 1.04
- relative viability ([24]; first compound 0.8 µM): 1.17
- relative viability ([24]; first compound 2.53 µM): 1.07
- relative viability ([24]; first compound 8 µM): 0.634
- relative viability ([25]; first compound 0.08 µM): 0.975
- relative viability ([25]; first compound 0.8 µM): 1.13
- relative viability ([25]; first compound 2.53 µM): 0.962
- relative viability ([25]; first compound 8 µM): 0.988
